How the values were obtained:
[1] = Biodegradability (OECD 306)
Skeletonema costatum = experiment: Toxicity (EC50 Skeletonema costatum); assay type: cell-based

Row | Biodegradability [1] [%] | Compound | Toxicity EC50 (Skeletonema costatum) [µg/mL]
1 | 85 | CCCCCCCCN1CC(C(=O)O)CC1=O.NCCO (stereo not shown) [Compound from example 1, N-octyl-5-oxopyrrolidine-3-carboxylic acid monoethanolammonium salt] | >100
2 | 78 | CCCCCCCC/C=C\CCCCCCCCN1CC(C(=O)O)CC1=O.NCCO (stereo not shown) [Compound from example 5, N-oleyl-5-oxopyrrolidine-3-carboxylic acid monoethanolammonium salt] | >100

— patent US8349215B2, “Corrosion inhibitors having increased biological degradability and minimized toxicity” (Clariant Finance (BVI) Limited, priority 2008, dated 2013)
